Key:
[1] = treatment concentration of 2 mg/kg; cited from earlier work
[2] = cited from earlier work
[3] = Normal tissue damage after photodynamic therapy (strictures; erythema, edema and necrosis); type: in vivo, human; settings: after first PDT treatment
Protocol: Nevertheless, PHOTOFRIN™ at an optimized dose level of 2 mg/kg body weight and activation at its preferential light absorption wavelength of 630 nm, and optimized light exposure results in a first treatment complete cure rate of about 32 percent and a two treatment complete cure rate of about 58 percent and a three treatment complete cure rate of about 77 percent. Unfortunately, the treatment also results in significant damage to surrounding normal tissue. Normal tissue damage for PHOTOFRIN™, as measured by percent of strictures at only a single treatment is about 12% and using other reported data concerning PHOTOFRIN™ treatment, is greater than 20 percent based upon toxicity as determined by the presence of erythema, edema and necrosis.
(§1) Using the above parameters, a phase I/II trial using HPPH and a phase III trial using PHOTOFRIN™, the latter approved by the United States Food and Drug Administration, the following results for response of high grade dysplasia were obtained, with CR being defined as complete ablation of high grade dysplasia.

[4] = system: esophageal high grade dysplasia; experiment: Photodynamic therapy trials, response of high grade dysplasia (phase I/II HPPH, phase III PHOTOFRIN); type: in vivo, human; settings: for Response After First Treatment, CR (complete ablation of high grade dysplasia): after first PDT treatment, patients with high grade dysplasia; for Response After Second Treatment, expected cure rate / Response After Third Treatment, expected cure rate: calculated from first-treatment rate applied to remaining uncured
Protocol: The method of the invention includes the steps of: • injecting HPPH in a physiologically compatible medium into a patient having high grade esophageal dysplasia to provide a dose level of 3 through 5 mg/m^2 of body surface area, preferably 3 through 4 mg/m^2 of body surface area. • waiting for a time period of 24 through 60 hours to permit preferential absorption of the HPPH into the high grade dysplasia tissue, and • exposing the esophageal high grade dysplasia tissue to light at a wavelength of about 670±5 nm at an energy of from about 75 to about 200 Joules/cm, preferably 75 to about 150 Joules/cm.
Injection of the HHPH is preferably accomplished intravenously usually over a time period of 0.75 to 3 hours in a physiologically compatible medium. The time period is functionally dependent upon rate of infusion and dose level desired The concentration is preferably 0.5-through 1.5 mg/ml in medium and the medium is preferably 0.1% polysorbate 80, 2% ethyl alcohol and 5% glucose in normal saline.
Exposure is accomplished using a fiber optic carrying laser light emitted by a laser. The laser may be any suitable laser emitting light at the wavelength and energy desired, e.g. a dye or diode laser. Exposure may be adjusted by length of time of exposure and/or adjustment of light intensity.
as §1

[5] = system: esophageal high grade dysplasia; settings: 2 mg/kg body weight, 630 nm, optimized light exposure; cited from earlier work

Substance | phototoxicity [1] | Normal tissue damage as measured by percent of strictures ([2]; at only a single treatment) | Normal tissue damage based upon toxicity as determined by the presence of erythema, edema and necrosis ([2]; other reported data concerning PHOTOFRIN treatment) | First Treatment Normal Tissue Damage, strictures [3] [% strictures] | Response After First Treatment, CR (complete ablation of high grade dysplasia) [4] [% CR] | Response After Second Treatment, cure rate (observed) ([4]; after second PDT treatment) | Response After Second Treatment, expected cure rate [4] | Response After Third Treatment, cure rate (observed) ([4]; after third PDT treatment) | Response After Third Treatment, expected cure rate [4] | first treatment complete cure rate [5] | three treatment complete cure rate [5] | two treatment complete cure rate [5] | effectiveness against high grade dysplasia and side effects compared with PHOTOFRIN ([4]; 3 to 5 mg/m^2 of body surface area, light at 670±5 nm)
porfimer sodium [PHOTOFRIN ™] | can cause serious phototoxicity | about 12% | greater than 20% | 12 | 32 | 58% cure rate (observed) | 54% expected cure rate (based upon | 77% cure rate (observed) | 71% expected cure rate (based upon | about 32% | about 77% | about 58% | –
3-(1-hexyloxy) ethyl-derivative of pyropheophorbide-a [HPPH] | – | – | – | 3 | 49 | – | 74% expected cure rate | – | 87% expected cure rate (based | – | – | – | more effective against high grade dysplasia with fewer side effects than PHOTOFRIN™
